Measured values: patent publication US11840686B2, “Modulation of prekallikrein (PKK) expression” (Ionis Pharmaceuticals, Inc., priority 2013, dated 2023)
Strand notation (5' to 3'): a small letter for the sugar, then the base; units joined by * are phosphorothioate-linked, units joined directly phosphodiester-linked; [ ] holds rarer units or linkages, { } end groups; capitals alone tell only the bases. e = 2'-O-(2-methoxyethyl) (MOE); [5mC] = 5-methylcytosine; d = 2'-deoxy (DNA)

Legend:
thrombus formation = assay: FeCl3 induced mesenteric thrombosis model, platelet aggregation and fibrin formation (Example 21); format: in vivo, mouse; settings: Swiss-Webster mice; for Fibrin formation, fluorescent intensity / Platelet aggregation, fluorescent intensity: 80 mg/kg/wk
Experimental: ISIS 482584 was evaluated in the FeCl3 induced mesenteric thrombosis mouse model.
A group of 6-8 Swiss-Webster mice was treated with 40 mg/kg of ISIS 482584, administered subcutaneously twice a week for 3 weeks (weekly dose of 80 mg/kg). A control group of 6 Swiss-Webster mice was treated with PBS, administered subcutaneously twice a week for 3 weeks. Two days after the last dose of antisense oligonucleotide or PBS, mice from all groups were anesthetized with 75 mg/kg ketamine mixed with 25 mg/kg xylazine, administered by subcutaneous injection.
Rhodamine 6G dye at a dosage of 5 mg/kg was injected subcutaneously to stain platelets. Alexa-647-labeled anti-fibrinogen antibody at a dosage of 1 mg/kg was injected via tail vein injection to stain fibrin. The abdomen was opened by a middle incision. The visceral mesentery was spread on a glass coverslip and the mesenteric arterioles (70-120 μm) were located by observation under a microscope. Thrombus formation was induced by applying of cotton threads (2×0.3 mm) pre-saturated with 6% FeCl3 solution directly on the target vessel. After three minutes of exposure, the thread was removed and the color intensities of both the dyes were recorded by fluorescent microscopy (Olympus FluoView 1000 confocal laser scanning microscope) with appropriate filters for 70 min.
The results for platelet aggregation in the control and treatment groups are presented in Table 83, expressed in arbitrary units (a.u.). […] The results for fibrin formation in the control and treatment groups are presented in Table 84, also expressed in arbitrary units (a.u.).

murine PKK mRNA = assay: PKK mRNA in BALB/c mice liver (Example 10); format: in vivo, mouse; settings: for % inhibition of PKK mRNA in BALB/c mice liver: twice a week for 3 weeks, relative to PBS control
Experimental: ISIS 482584 was tested for its effect on murine PKK mRNA in vivo.
Six groups of male BALB/c mice each were treated with 2.5 mg/kg, 5.0 mg/kg, 10.0 mg/kg, 20.0 mg/kg, 40.0 mg/kg, or 80.0 mg/kg of ISIS 482584, administered subcutaneously twice a week for 3 weeks (weekly doses of 5.0 mg/kg, 10.0 mg/kg, 20.0 mg/kg, 40.0 mg/kg, 80.0 mg/kg, or 160.0 mg/kg). A control group of BALB/c mice was treated with PBS, administered subcutaneously twice a week for 3 weeks. Two days after the last dose of antisense oligonucleotide or PBS, mice from all groups were anesthetized with 150 mg/kg ketamine mixed with 10 mg/kg xylazine, administered by intraperitoneal injection. Liver was collected for RNA analysis.
RNA was extracted from liver tissue for real-time PCR analysis of PKK. PKK mRNA levels were measured using the murine primer probe set (forward sequence […], designated herein as SEQ ID NO: 2231; reverse sequence […], designated herein as SEQ ID NO: 2232; probe sequence […], designated herein as SEQ ID NO: 2233). Results are presented as percent inhibition of PKK, relative to PBS control.

PKK protein = PKK protein in cynomolgus monkey plasma by ELISA (Example 8); format: in vivo; settings: 40 mg/kg sc
Experimental: Approximately 0.9 mL of blood was collected each time from all available animals at pre-dose, day 17, day 31, day 45, day 59, and day 73, and placed in tubes containing 3.2% sodium citrate. The tubes were centrifuged (3000 rpm for 10 min at room temperature) to obtain plasma. PKK protein levels were measured in the plasma by ELISA. The results are presented in Table 52, expressed as percentage inhibition compared to the PBS control levels.

[1] = Kidney function: plasma BUN and creatinine in cynomolgus monkeys (Example 8)
Experimental: Prior to the study, the monkeys were kept in quarantine for a 30-day period, during which the animals were observed daily for general health. The monkeys were 2-4 years old and weighed between 2 and 4 kg. Ten groups of four randomly assigned male cynomolgus monkeys each were injected subcutaneously with ISIS oligonucleotide or PBS. PBS solution or ISIS oligonucleotides at a dose of 40 mg/kg were administered initially with a loading regimen consisting of four doses on the first week of the study (days 1, 3, 5, and 7), followed by a maintenance regimen consisting of once weekly administration starting on Day 14 (weeks 2 to 13). Subcutaneous injections were performed in clock-wise rotations at 4 sites on the back; one site per dose. The injection sites were delineated by tattoo, while sedated using ketamine, and were separated by a minimum of 3 cm.
To evaluate the effect of ISIS oligonucleotides on kidney function, the monkeys were fasted overnight. Approximately, 1.5 mL of blood samples were collected from all the study groups. Blood was collected in tubes without anticoagulant for serum separation. The tubes were kept at room temperature for a minimum of 90 min and then centrifuged at 3,000 rpm for 10 min. Levels of BUN and creatinine were measured using a Toshiba 120FR NEO chemistry analyzer (Toshiba Co., Japan).

In the case of “ISIS 482584: 5-10-5 MOE gapmer targeting murine PKK, GGCATATTGGTTTTTGGAAT; SEQ ID NO: 2244 (antisense eG*eG*e[5mC]*eA*eT*dA*dT*dT*dG*dG*dT*dT*dT*dT*dT*eG*eG*eA*eA*eT)”, the “Fibrin formation, fluorescent intensity” value (thrombus formation; time 752 sec) is reported as 54 a.u, the “Platelet aggregation, fluorescent intensity” value (thrombus formation; time 752 sec) is reported as 74 a.u and the “Fibrin formation, fluorescent intensity” value (thrombus formation; time 1018 sec) is reported as 7 a.u. The “Platelet aggregation, fluorescent intensity” value (thrombus formation; time 1018 sec) was 11 a.u, the “Fibrin formation, fluorescent intensity” value (thrombus formation; time 1284 sec) was 1 a.u and the “Platelet aggregation, fluorescent intensity” value (thrombus formation; time 1284 sec) was 7 a.u. For the same substance, the “Fibrin formation, fluorescent intensity” value (thrombus formation; time 1550 sec) was 10 a.u, the “Platelet aggregation, fluorescent intensity” value (thrombus formation; time 1550 sec) was 0 a.u and the “Fibrin formation, fluorescent intensity” value (thrombus formation; time 1815 sec) was 16 a.u. The “Platelet aggregation, fluorescent intensity” value (thrombus formation; time 1815 sec) was 0 a.u, the “Fibrin formation, fluorescent intensity” value (thrombus formation; time 2081 sec) was 15 a.u and the “Platelet aggregation, fluorescent intensity” value (thrombus formation; time 2081 sec) was 0 a.u. For the same substance, the “Fibrin formation, fluorescent intensity” value (thrombus formation; time 2347 sec) was 61 a.u, the “Platelet aggregation, fluorescent intensity” value (thrombus formation; time 2347 sec) was 0 a.u and the “Fibrin formation, fluorescent intensity” value (thrombus formation; time 2613 sec) was 88 a.u. The “Platelet aggregation, fluorescent intensity” value (thrombus formation; time 2613 sec) was 38 a.u, the “Fibrin formation, fluorescent intensity” value (thrombus formation; time 2879 sec) was 141 a.u and the “Platelet aggregation, fluorescent intensity” value (thrombus formation; time 2879 sec) was 148 a.u. For the same substance, the “Fibrin formation, fluorescent intensity” value (thrombus formation; time 3144 sec) was 150 a.u, the “Platelet aggregation, fluorescent intensity” value (thrombus formation; time 3144 sec) was 129 a.u and the “Fibrin formation, fluorescent intensity” value (thrombus formation; time 3410 sec) was 173 a.u. For the same substance, the “Platelet aggregation, fluorescent intensity” value (thrombus formation; time 3410 sec) was 169 a.u, the “Fibrin formation, fluorescent intensity” value (thrombus formation; time 3676 sec) was 160 a.u and the “Platelet aggregation, fluorescent intensity” value (thrombus formation; time 3676 sec) was 131 a.u. For the same substance, the “Fibrin formation, fluorescent intensity” value (thrombus formation; time 3944 sec) was 128 a.u, the “Platelet aggregation, fluorescent intensity” value (thrombus formation; time 3944 sec) was 87 a.u and the “fibrin formation” value (thrombus formation; 80 mg/kg/week, vs PBS) was “Fibrin formation was reduced”. For the same substance, the “platelet aggregation” value (thrombus formation; 80 mg/kg/week, vs PBS) was “Platelet aggregation was reduced”, the “% inhibition of PKK mRNA in BALB/c mice liver” value (from here on “% inhibition of PKK mRNA”) (murine PKK mRNA; 5 mg/kg/wk sc) was 3% and the “% inhibition of PKK mRNA” value (murine PKK mRNA; 10 mg/kg/wk sc) was 42%. The “% inhibition of PKK mRNA” value (murine PKK mRNA; 20 mg/kg/wk sc) was 68%, the “% inhibition of PKK mRNA” value (murine PKK mRNA; 40 mg/kg/wk sc) was 85% and the “% inhibition of PKK mRNA” value (murine PKK mRNA; 80 mg/kg/wk sc) was 91%. For the same substance, the “% inhibition of PKK mRNA” value (murine PKK mRNA; 160 mg/kg/wk sc) was 94% and the “reduction of PKK mRNA in liver” value (murine PKK mRNA; BALB/c mice, 2.5-80.0 mg/kg s.c. twice a week for 3 weeks, vs PBS) was “significant dose-dependent reduction of PKK mRNA”.

With “Tes Ges mCes Aes Aes Gds Tds mCds Tds mCds Tds Tds Gds Gds mCds Aes Aes Aes mCes Ae [ISIS 546254]” the “PKK protein level reduction (%) in plasma relative to control levels” value (PKK protein; Day 17) was 38%, the “PKK protein level reduction (%) in plasma relative to control levels” value (PKK protein; Day 31) was 51% and the “PKK protein level reduction (%) in plasma relative to control levels” value (PKK protein; Day 45) was 63%. For the same substance, the “PKK protein level reduction (%) in plasma relative to control levels” value (PKK protein; Day 59) was 74%, the “PKK protein level reduction (%) in plasma relative to control levels” value (PKK protein; Day 73) was 73% and the “Plasma BUN” value ([1]; 40 mg/kg s.c.) was 25.7 mg/dL. The “Plasma Creatinine” value ([1]; 40 mg/kg s.c.) was 0.9 mg/dL and the “effect on kidney function” value ([1]; plasma chemistry) was “well tolerated in terms of the kidney function”.
